From patent US11492335B2, “Aryl or heteroaryl triazolone derivatives or salts thereof, or pharmaceutical compositions comprising the same” (YUHAN CORPORATION, priority 2018, dated 2022) come the findings set out here.

Structures are written as SMILES. Where a name gives a salt, the structure may show the parent alone.

What all share (type): biochemical
For one test, the target named is T1, recombinant human VAP-1 (Homo sapiens, UniProt Q16853).
T1 construct: purchased R&D systems
T1 sequence (Q16853 1-763): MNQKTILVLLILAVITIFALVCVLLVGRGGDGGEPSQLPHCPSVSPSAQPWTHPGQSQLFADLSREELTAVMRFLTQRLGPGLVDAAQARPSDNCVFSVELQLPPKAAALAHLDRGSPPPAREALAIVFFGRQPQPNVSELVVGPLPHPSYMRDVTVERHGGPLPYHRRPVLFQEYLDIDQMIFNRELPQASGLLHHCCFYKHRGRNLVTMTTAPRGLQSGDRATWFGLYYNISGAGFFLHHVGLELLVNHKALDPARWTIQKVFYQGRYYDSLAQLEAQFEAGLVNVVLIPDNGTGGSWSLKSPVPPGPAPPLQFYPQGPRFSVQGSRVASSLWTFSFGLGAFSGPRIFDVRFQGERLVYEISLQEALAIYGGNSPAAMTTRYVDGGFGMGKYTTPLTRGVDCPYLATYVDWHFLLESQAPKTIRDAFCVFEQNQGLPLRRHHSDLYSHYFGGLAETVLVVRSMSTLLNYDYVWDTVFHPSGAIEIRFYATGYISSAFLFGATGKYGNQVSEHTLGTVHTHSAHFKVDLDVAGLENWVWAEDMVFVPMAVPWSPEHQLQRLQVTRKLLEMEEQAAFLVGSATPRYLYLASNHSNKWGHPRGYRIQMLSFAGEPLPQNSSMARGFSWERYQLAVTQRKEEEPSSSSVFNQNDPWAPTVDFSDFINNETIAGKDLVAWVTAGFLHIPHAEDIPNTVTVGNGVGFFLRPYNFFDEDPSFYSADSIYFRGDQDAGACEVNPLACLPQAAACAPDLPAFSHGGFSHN
Nature of the test: Activity on recombinant human VAP-1, Amplex Red HRP-coupled hydrogen peroxide assay, benzylamine substrate. The note with it: recombinant human VAP-1, benzylamine substrate, 30 min preincubation at 37° C.; read-out: Inhibitory Activity (IC50, nM) human VAP-1. A digest of the protocol:
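Enzyme in 50 mM sodium phosphate (pH 7.4) is exposed to test compound for 30 min at 37 °C. Benzylamine (1 mM) with HRP and Amplex Red then starts the reaction, and the fluorescence rate, relative to a DMSO-only control, gives IC50.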

Test [1] concerns the target T2, recombinant human MAO-A (monoamine oxidase-A) (Homo sapiens, UniProt P21397).
T2 construct: purchased Sigma-Aldrich
T2 sequence (P21397 1-527): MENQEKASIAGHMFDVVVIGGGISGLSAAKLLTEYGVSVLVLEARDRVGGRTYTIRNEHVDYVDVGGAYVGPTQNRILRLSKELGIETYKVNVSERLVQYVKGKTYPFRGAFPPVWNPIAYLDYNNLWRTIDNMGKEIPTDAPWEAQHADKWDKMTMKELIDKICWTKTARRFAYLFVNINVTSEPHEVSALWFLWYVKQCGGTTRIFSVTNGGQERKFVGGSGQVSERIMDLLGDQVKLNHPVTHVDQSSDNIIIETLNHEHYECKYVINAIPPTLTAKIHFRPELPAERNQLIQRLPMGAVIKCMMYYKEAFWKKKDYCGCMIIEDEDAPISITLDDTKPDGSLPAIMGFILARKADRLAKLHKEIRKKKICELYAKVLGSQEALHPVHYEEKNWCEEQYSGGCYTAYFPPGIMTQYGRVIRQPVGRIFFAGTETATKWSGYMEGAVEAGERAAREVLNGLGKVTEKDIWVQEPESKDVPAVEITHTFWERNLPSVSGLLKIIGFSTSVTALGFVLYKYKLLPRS
Nature of the test: Activity on recombinant human MAO-A, Amplex Red method, 0.5 mM tyramine substrate. The note with it: 0.5 mM tyramine, read-out: Inhibitory Activity (IC50, nM) MAO-A. A digest of the protocol: (§1)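 Enzyme in pH 7.4 phosphate buffer; 30 min, 37° C with compound (DMSO <1%); start with 200 uM Amplex Red + 1 U/mL HRP + tyramine 0.5 mM (MAO-A) or benzylamine 1 mM (MAO-B); kinetic read ex 544/em 590, 1-2 h; % rate decrease vs DMSO control → IC50, 4-parameter fit.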

The target in test [2] is T3, recombinant human MAO-B (monoamine oxidase-B) (Homo sapiens, UniProt P27338).
T3 construct: purchased Sigma-Aldrich
T3 sequence (P27338 1-520): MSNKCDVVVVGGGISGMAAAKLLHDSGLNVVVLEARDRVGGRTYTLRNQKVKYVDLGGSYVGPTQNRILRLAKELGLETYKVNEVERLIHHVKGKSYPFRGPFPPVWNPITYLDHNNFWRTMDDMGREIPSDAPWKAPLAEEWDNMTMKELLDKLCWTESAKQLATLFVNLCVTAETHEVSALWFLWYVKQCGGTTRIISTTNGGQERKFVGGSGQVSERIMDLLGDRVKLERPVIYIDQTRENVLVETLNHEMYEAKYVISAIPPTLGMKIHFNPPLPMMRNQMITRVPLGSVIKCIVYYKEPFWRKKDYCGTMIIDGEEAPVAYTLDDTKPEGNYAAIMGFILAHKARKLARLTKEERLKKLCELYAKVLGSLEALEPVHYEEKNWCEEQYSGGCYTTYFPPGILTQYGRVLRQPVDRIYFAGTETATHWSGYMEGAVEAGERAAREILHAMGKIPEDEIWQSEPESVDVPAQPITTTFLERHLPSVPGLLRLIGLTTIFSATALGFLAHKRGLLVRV
Nature of the test: Activity on recombinant human MAO-B, Amplex Red method, 1 mM benzylamine substrate. The note with it: 1 mM benzylamine, read-out: Inhibitory Activity (IC50, nM) MAO-B. A digest of the protocol: as §1

For test [3], the target named is T4, recombinant human DAO (diamine oxidase) (Homo sapiens, UniProt P19801).
T4 construct: purchased R&D systems
T4 sequence (P19801 20-751): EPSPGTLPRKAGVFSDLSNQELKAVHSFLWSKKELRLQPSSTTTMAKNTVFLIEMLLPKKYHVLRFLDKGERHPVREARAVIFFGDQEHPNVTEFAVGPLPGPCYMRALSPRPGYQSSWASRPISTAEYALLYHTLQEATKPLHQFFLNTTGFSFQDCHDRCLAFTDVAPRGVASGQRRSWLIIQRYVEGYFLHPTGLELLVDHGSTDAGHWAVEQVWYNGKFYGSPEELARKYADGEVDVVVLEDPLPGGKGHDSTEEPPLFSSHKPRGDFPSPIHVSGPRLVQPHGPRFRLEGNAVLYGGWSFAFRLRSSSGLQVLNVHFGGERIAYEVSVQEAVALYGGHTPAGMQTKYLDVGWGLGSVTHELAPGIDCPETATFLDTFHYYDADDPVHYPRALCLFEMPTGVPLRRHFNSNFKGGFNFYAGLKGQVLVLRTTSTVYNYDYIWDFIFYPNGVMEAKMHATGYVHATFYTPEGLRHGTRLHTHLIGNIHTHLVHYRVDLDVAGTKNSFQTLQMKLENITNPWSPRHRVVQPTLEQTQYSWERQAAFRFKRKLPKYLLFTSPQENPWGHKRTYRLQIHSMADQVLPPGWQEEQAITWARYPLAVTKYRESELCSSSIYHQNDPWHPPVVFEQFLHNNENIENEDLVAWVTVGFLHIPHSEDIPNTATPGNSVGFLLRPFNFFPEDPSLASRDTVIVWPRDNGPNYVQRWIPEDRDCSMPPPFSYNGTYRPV
Nature of the test: Activity on recombinant human DAO, Amplex Red method, 1 mM putrescine substrate. The note with it: recombinant human DAO, 1 mM putrescine; * = between 10 and 100 nM, ** = between 300 and 1000 nM; read-out: Inhibitory Activity (IC50, nM) DAO. The gist of the method:
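Inhibition of recombinant human DAO (diamine oxidase, R&D systems) was assessed with the Amplex Red Hydrogen Peroxide Assay Kit. Hydrogen peroxide produced from 1 mM putrescine was detected through an HRP-coupled reaction that converts Amplex Red into fluorescent resorufin, read at 544 nm excitation and 590 nm emission. IC50 values came from four-parameter logistic fits in GraphPad Prism.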

The term IC50 denotes the midpoint of a concentration-inhibition curve. Turning to `CC(=O)Nc1ccc(-c2cccc(-c3cccc(-n4cnn(C/C(=C/F)CN)c4=O)c3)c2)cc1` [Example 69, N-(3″-{1-[(2E)-2-(aminomethyl)-3-fluoroprop-2-en-1-yl]-5-oxo-1,5-dihydro-4H-1,2,4-triazol-4-yl}-1,1′:3′,1″-terphenyl-4-yl)acetamide hydrochloride], the IC50 on recombinant human VAP-1 was determined as 0.63 nM; in test [1], 4910 nM; in test [2], 1100 nM; in test [3], 11 nM.

Turning to `NC/C(=C\F)Cn1ncn(-c2cccc(-c3ccc(-c4ccc5c(c4)OCO5)cc3)c2)c1=O` [Example 70, 2-[(2E)-2-(aminomethyl)-3-fluoroprop-2-en-1-yl]-4-[4′-(1,3-benzodioxol-5-yl)biphenyl-3-yl]-2,4-dihydro-3H-1,2,4-triazol-3-one hydrochloride], the IC50 was 0.63 nM on recombinant human VAP-1, > 100000 nM in test [1], 1620 nM in test [2] and < 30 nM in test [3].

For the molecule `NC/C(=C\F)Cn1ncn(-c2cccc(-c3cccc(-c4ccc5c(c4)OCO5)c3)c2)c1=O` [Example 71, 2-[(2E)-2-(aminomethyl)-3-fluoroprop-2-en-1-yl]-4-[3′-(1,3-benzodioxol-5-yl)biphenyl-3-yl]-2,4-dihydro-3H-1,2,4-triazol-3-one hydrochloride], the half-maximal inhibitory concentration (IC50) is 1 nM at recombinant human VAP-1, 17300 nM in test [1], 240 nM in test [2] and < 30 nM in test [3].

On to `CC(=O)N1CCN(c2ccc(-c3cccc(-n4cnn(C/C(=C/F)CN)c4=O)c3)cc2)CC1` [Example 72, 4-[4′-(4-acetylpiperazine-1-yl)biphenyl-3-yl]-2-[(2E)-2-(aminomethyl)-3-fluoroprop-2-en-1-yl]-2,4-dihydro-3H-1,2,4-triazol-3-one hydrochloride], for which the IC50 at recombinant human VAP-1 came to 1.1 nM; in test [1], 4890 nM; in test [2], 1460 nM; in test [3], 59 nM.

For `NC/C(=C\F)Cn1ncn(-c2cccc(-c3ccc(C4CCOCC4)cc3)c2)c1=O` [Example 73, 2-[(2E)-2-(aminomethyl)-3-fluoroprop-2-en-1-yl]-4-[4′-(tetrahydro-2H-pyran-4-yl)biphenyl-3-yl]-2,4-dihydro-3H-1,2,4-triazol-3-one hydrochloride], the IC50 was 0.98 nM on recombinant human VAP-1, > 100000 nM in test [1], > 10000 nM in test [2] and 67 nM in test [3].

For `NC/C(=C\F)Cn1ncn(-c2cccc(-c3ccc(N4CCOCC4)cc3)c2)c1=O` [Example 74, 2-[(2E)-2-(aminomethyl)-3-fluoroprop-2-en-1-yl]-4-[4′-(morpholin-4-yl)biphenyl-3-yl]-2,4-dihydro-3H-1,2,4-triazol-3-one hydrochloride], the IC50 at recombinant human VAP-1 was 0.84 nM; in test [1] it was > 100000 nM; in test [2] it was > 10000 nM; in test [3], 282 nM.

`NC/C(=C\F)Cn1ncn(-c2cccc(-c3ccc(N4CCOCC4)c(F)c3)c2)c1=O` [Example 75, 2-[(2E)-2-(aminomethyl)-3-fluoroprop-2-en-1-yl]-4-[3′-fluoro-4′-(morpholin-4-yl)biphenyl-3-yl]-2,4-dihydro-3H-1,2,4-triazol-3-one hydrochloride]: the IC50 at recombinant human VAP-1 is 0.93 nM; in test [1] it was > 100000 nM; in test [2], > 10000 nM; in test [3], < 100 nM.

`NC/C(=C\F)Cn1ncn(-c2cccc(-c3ccc(N4CCOCC4)c(Cl)c3)c2)c1=O` [Example 76, 2-[(2E)-2-(aminomethyl)-3-fluoroprop-2-en-1-yl]-4-[3′-chloro-4′-(morpholin-4-yl)biphenyl-3-yl]-2,4-dihydro-3H-1,2,4-triazol-3-one hydrochloride]: the IC50 was 0.64 nM on recombinant human VAP-1, > 100000 nM in test [1], > 10000 nM in test [2] and < 100 nM in test [3].

Regarding `Cc1cc(-c2cccc(-n3cnn(C/C(=C/F)CN)c3=O)c2)ccc1N1CCOCC1` [Example 77, 2-[(2E)-2-(aminomethyl)-3-fluoroprop-2-en-1-yl]-4-[3′-methyl-4′-(morpholin-4-yl)biphenyl-3-yl]-2,4-dihydro-3H-1,2,4-triazol-3-one hydrochloride], the IC50 on recombinant human VAP-1 was 0.8 nM; in test [1], > 100000 nM; in test [2], > 10000 nM; in test [3], 18 nM.

On to `NC/C(=C\F)Cn1ncn(-c2cccc(-c3ccc(C(=O)N4CCOCC4)cc3)c2)c1=O` [Example 78, 2-[(2E)-2-(aminomethyl)-3-fluoroprop-2-en-1-yl]-4-[4′-(morpholin-4-ylcarbonyl)biphenyl-3-yl]-2,4-dihydro-3H-1,2,4-triazol-3-one hydrochloride], for which the IC50 on recombinant human VAP-1 is 1 nM; in test [1], > 100000 nM; in test [2], > 10000 nM; in test [3], 0.2 nM.
